Source: ChEMBL document CHEMBL5543064, “Interleukin-1β converting enzyme (ICE): A comprehensive review on discovery and development of caspase-1 inhibitors” (Eur J Med Chem, 2023)
Values belong to the compound of their own block, whether it stands above or below them.

What was measured:
[1] = molecular target: Caspase-1 (Homo sapiens) (UniProt P29466); test: Binding affinity to caspase-1 (unknown origin) assessed as inhibition constant
[2] = molecular target: T1, Caspase-1 (Homo sapiens, UniProt P29466); test: Inhibition of caspase-1 (unknown origin) using Ac-Tyr-Val-Ala-Asp-AFC as fluorogenic substrate by fluorescence based analysis
T1 sequence (P29466 whole entry): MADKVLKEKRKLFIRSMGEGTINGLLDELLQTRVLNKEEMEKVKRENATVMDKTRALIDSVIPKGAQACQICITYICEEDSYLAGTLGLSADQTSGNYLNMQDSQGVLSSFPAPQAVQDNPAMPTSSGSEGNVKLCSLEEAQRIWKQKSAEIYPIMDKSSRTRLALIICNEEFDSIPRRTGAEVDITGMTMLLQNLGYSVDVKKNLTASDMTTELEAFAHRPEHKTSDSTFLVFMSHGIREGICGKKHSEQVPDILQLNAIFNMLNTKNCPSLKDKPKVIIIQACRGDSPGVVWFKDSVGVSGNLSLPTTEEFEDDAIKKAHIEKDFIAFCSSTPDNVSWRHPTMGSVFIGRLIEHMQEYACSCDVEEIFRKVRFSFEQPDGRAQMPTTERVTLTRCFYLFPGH

[3] = molecular target: Interleukin-1 beta (Homo sapiens) (UniProt P01584); test: Inhibition of human Interleukin-1beta at 30 uM relative to control
Chain of Interleukin-1 beta (Homo sapiens) (P01584 117-269 limits assumed): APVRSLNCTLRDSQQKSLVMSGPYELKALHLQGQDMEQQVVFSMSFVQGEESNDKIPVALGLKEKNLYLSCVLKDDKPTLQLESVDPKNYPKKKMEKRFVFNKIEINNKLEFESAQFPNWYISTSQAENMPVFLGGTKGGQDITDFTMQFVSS

[4] = molecular target: T2, Caspase-8 (Homo sapiens, UniProt Q14790); test: Binding affinity to Caspase-8 (unknown origin) using Ac-IETD-AFC as substrate assessed as inhibition constant
T2 sequence (Q14790 217-374 limits assumed): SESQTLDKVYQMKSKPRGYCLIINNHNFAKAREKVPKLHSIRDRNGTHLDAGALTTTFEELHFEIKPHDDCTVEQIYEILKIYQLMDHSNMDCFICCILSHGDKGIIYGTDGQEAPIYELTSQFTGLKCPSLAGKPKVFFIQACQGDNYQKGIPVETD
T2 sequence (Q14790 385-479 limits assumed): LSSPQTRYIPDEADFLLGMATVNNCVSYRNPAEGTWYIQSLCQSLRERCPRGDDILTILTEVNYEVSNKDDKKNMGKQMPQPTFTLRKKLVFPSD

[5] = molecular target: T1, Caspase-1; test: Binding affinity to N-terminal His-tagged Caspase-1 (unknown origin) assessed as inhibition constant
[6] = molecular target: T1, Caspase-1; test: Inhibition of Caspase-1 (unknown origin)
[7] = molecular target: T1, Caspase-1; test: Inhibition of Interleukin-1beta-converting enzyme (unknown origin)
[8] = molecular target: T1, Caspase-1; test: Inhibition of N-terminal His-tagged Caspase-1 (unknown origin)
[9] = molecular target: T1, Caspase-1; test: Inhibition of caspase-1 (unknown origin) by fluorescence based analysis
[10] = molecular target: T2, Caspase-8; test: Inhibition of caspase-8 (unknown origin) by fluorescence based analysis
[11] = Oral bioavailability in rat; type: ADME, organism-based; conditions: in vivo
[12] = molecular target: T1, Caspase-1; test: Binding affinity to caspase-1 (unknown origin) assessed as inhibition constant
[13] = molecular target: T1, Caspase-1; test: Binding affinity to human caspase-1 assessed as apparent inhibition constant; conditions: read-out: Ki(app)
[14] = Toxicity in Sprague-Dawley rat assessed as […] mortality at 12.5 micromol/kg; conditions: in vivo, 12.5 µmol/kg

SMILES: CC(C(=O)NC(C=O)CC(=O)O)n1c(Cc2ccccc2)ccc(NC(=O)CCc2ccccc2)c1=O (single isomer, unassigned)
Ki [1]: 970 nM

SMILES: CC(=O)N[C@@H](Cc1ccc(O)cc1)C(=O)N[C@H](C(=O)N[C@@H](C)C(=O)N[C@@H](CC(=O)O)C(=O)CCCCc1ccccc1)C(C)C
Ki [4]: 42 nM

SMILES: CC(=O)N[C@H](C(=O)N[C@@H](CC(=O)O)C(=O)COC(=O)Cc1c(Cl)ccc(Cl)c1Cl)C(C)C
Ki [5]: 113 nM

SMILES: CCC(C)(C)c1ccc(Oc2ccccc2S(=O)(=O)N[C@H](C=O)CC(=O)O)cc1
IC50 [6]: 2200 nM

SMILES: CC(C)C(NC(=O)c1ccc2ccccc2c1)C(=O)N[C@@H](C)C(=O)N[C@H](CN=[N+]=[N-])CC(=O)O (some centres not stated)
IC50 [6]: 4.6 nM

SMILES: Cc1cccc(S(=O)(=O)N[C@H](C=O)CC(=O)O)c1-c1ccccc1
IC50 [6]: 34400 nM

SMILES: CC1=C(O)C(=O)C=C2C1=CC=C1[C@@]2(C)CC[C@@]2(C)[C@@H]3C[C@@H](C)C(=O)C[C@]3(C)CC[C@]12C [TINGENONE]
IC50 [7]: 58 nM

SMILES: O=C[C@H](CC(=O)O)NS(=O)(=O)c1ccccc1-c1cccc2ccccc12
IC50 [6]: 11400 nM

SMILES: CC(C)[C@H](NC(=O)CCc1ccccc1)C(=O)N[C@@H](C)C(=O)N[C@@H](CC(=O)O)C(=O)CCc1ccccc1
Ki [4]: 610 nM

SMILES: CC(=O)N[C@@H](Cc1ccc(O)cc1)C(=O)N[C@H](C(=O)N[C@@H](C)C(=O)N[C@@H](CC(=O)O)C(=O)CCCCCc1ccccc1)C(C)C
Ki [4]: 18.5 nM

SMILES: COC(=O)[C@]1(C)CC[C@]2(C)CC[C@]3(C)C4=CC=C5C(=CC(=O)C(O)=C5C)[C@]4(C)CC[C@@]3(C)[C@@H]2C1 [PRISTIMERIN]
IC50 [7]: 56 nM

SMILES: CC(C)C(NC(=O)OCc1ccccc1)C(=O)N[C@@H](C)C(=O)NC(CC(=O)O)C(=O)CNS(=O)(=O)CCc1ccccc1 (some centres not stated)
IC50 [6]: 700 nM
Ki [12]: 4 nM

SMILES: C[C@H](NC(=O)[C@H](CCC(=O)O)NC(=O)OCc1ccccc1)C(=O)NC(CC(=O)O)C(=O)CNS(=O)(=O)CCc1ccccc1 (some centres not stated)
IC50 [6]: 20 nM
Ki [12]: 20 nM

SMILES: CC(C)[C@H](NC(=O)c1ccc2ccccc2c1)C(=O)N(CCCn1ccnc1)CC(=O)N[C@@H](CC(=O)O)C(=O)COc1ccccc1
IC50 [2]: 13 nM

SMILES: CC1=C(O)C(=O)C=C2C1=CC=C1[C@@]2(C)CC[C@@]2(C)[C@@H]3C[C@](C)(C(=O)O)CC[C@]3(C)CC[C@]12C [CELASTROL]
IC50 [7]: 40 nM

SMILES: N#Cc1ccc(-n2sc(-c3ccccc3Cl)cc2=O)cc1
inhibition [3]: 89%

SMILES: CC(=O)N[C@H](C(=O)N[C@@H](CC(=O)O)C(=O)COC(=O)Cc1c(Cl)cccc1Cl)C(C)C
Ki [5]: 80 nM

SMILES: CC(C)[C@H](NC(=O)c1ccc2ccccc2c1)C(=O)N1CCC[C@H]1C(=O)N[C@H](C=O)CC(=O)NS(C)(=O)=O
IC50 [2]: 38 nM

SMILES: O=CC(CC(=O)O)NC(=O)Cn1c(Cc2ccccc2)ccc(NC(=O)CCc2ccccc2)c1=O (single isomer, unassigned)
Ki [1]: 150 nM

SMILES: CC(=O)C[C@@H](C(=O)CCl)N(C(=O)[C@@H](NC(=O)[C@H](Cc1ccc(O)cc1)NC(C)=O)C(C)C)[C@@H](C)C(N)=O
mortality [14]: 33%

SMILES: C[C@H](NC(=O)C(NC(=O)c1ccc2ccccc2c1)C(=O)O)C(=O)N[C@H](CN=[N+]=[N-])CC(=O)O (some centres not stated)
IC50 [6]: 40 nM

The next lines start with the values.

IC50 [2]: 22 nM
SMILES: CCCCN(CC(=O)N[C@@H](CC(=O)O)C(=O)COc1ccccc1)C(=O)[C@@H](NC(=O)c1ccc2ccccc2c1)C(C)C

inhibition [3]: 83%
SMILES: O=c1cc(-c2ccccc2Cl)sn1-c1ccc(C(F)(F)F)cc1

IC50 [6]: 1000 nM
SMILES: CCC(C)(C)c1ccc(Oc2ccccc2S(=O)(=O)N[C@H](C=O)CC(=O)O)cc1C

IC50 [8]: 5560 nM
SMILES: COC(=O)CC(NC(=O)C(NC(=O)OCc1ccccc1)c1ccccc1)C(=O)COC(=O)c1ccccc1 (configuration not stated)

Ki [1]: 1 nM
SMILES: O=C[C@H](CC(=O)O)NC(=O)[C@@H]1CCCN2C(=O)CC[C@H](NC(=O)c3ccc(OCC(=O)O)cc3)C(=O)N12

Ki [1]: 900 nM
SMILES: O=C[C@H](CC(=O)O)NC(=O)Cn1c(-c2ccccc2)ccc(NC(=O)CCc2ccccc2)c1=O

IC50 [7]: 19 nM
SMILES: COC(=O)c1ccc(NC(=O)CCCCC(=O)Nc2ccc3c(c2)C(=O)C(=O)NC3=O)cc1

IC50 [6]: 1000 nM
SMILES: Cc1cc(Oc2ccccc2S(=O)(=O)N[C@H](C=O)CC(=O)O)ccc1C(C)C

IC50 [9]: 1.3 nM
IC50 [10]: 0.12 nM
bioavailability [11]: 4%
SMILES: O=C1C[C@H](NC(=O)[C@@H]2CCCN3C(=O)CC[C@H](NC(=O)c4nccc5ccccc45)C(=O)N23)[C@H](O)O1

Ki [12]: 850 nM
SMILES: O=C(CN1C(=O)[C@H](NC(=O)c2ccccc2)CN(C(=O)CCc2ccccc2)c2ccccc21)N[C@H]1CC(=O)OC1O (some centres not stated)

IC50 [8]: 820 nM
SMILES: O=C(O)CC(NC(=O)C(NC(=O)OCc1ccccc1)c1ccccc1)C(=O)COC(=O)c1ccccc1 (configuration not stated)

Ki [13]: 150 nM
SMILES: O=C[C@H](CC(=O)O)NC(=O)CCCCCNC(=O)c1ccc(Nc2cnc3ccccc3n2)cc1

Ki [4]: 100 nM
SMILES: CC(C)[C@H](NC(=O)CCc1ccccc1)C(=O)N[C@@H](C)C(=O)N[C@@H](CC(=O)O)C(=O)CCCc1ccccc1

IC50 [6]: 75 nM
SMILES: C[C@H](NC(=O)C(NC(=O)c1cc2ccccc2[nH]1)C(=O)O)C(=O)N[C@H](CN=[N+]=[N-])CC(=O)O (some centres not stated)

IC50 [6]: 7.9 nM
SMILES: CC(C)(NC(=O)CNC(=O)c1ccc2ccccc2c1)C(=O)N[C@H](CN=[N+]=[N-])CC(=O)O

inhibition [3]: 87%
SMILES: CCOC(=O)c1ccc(-n2sc(-c3ccccc3Cl)cc2=O)cc1

IC50 [7]: 79 nM
SMILES: COC(=O)[C@]1(C)CC[C@]2(C)CC[C@]3(C)C4=CCc5c(cc(OC(C)=O)c(OC(C)=O)c5C)[C@]4(C)CC[C@@]3(C)[C@@H]2C1 [PRISTIMEROL DIACETATE]
